Test results published in patent publication US7728012B2, “Carboxamide compounds and their use as calpain inhibitors” (Abbott GmbH & Co. KG, priority 2006, dated 2010).

Legend:
Assay type in all cases: biochemical
[1] = target: T1, cathepsin L isolated from human liver (Homo sapiens, UniProt P07711); assay: Cathepsin L kinetic fluorescence enzyme inhibition assay; conditions: selectivity ratio versus calpain I
T1 construct: cathepsin L—isolated from human liver; purchased Calbiochem 219402; host or cells: human liver (tissue isolate)
T1 sequence (P07711 114-333): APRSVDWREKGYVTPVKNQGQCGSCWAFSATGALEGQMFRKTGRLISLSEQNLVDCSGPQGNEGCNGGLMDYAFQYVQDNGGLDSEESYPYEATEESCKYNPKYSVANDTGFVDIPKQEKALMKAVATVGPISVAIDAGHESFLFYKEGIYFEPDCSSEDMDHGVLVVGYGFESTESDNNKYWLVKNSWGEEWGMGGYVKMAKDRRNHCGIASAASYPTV
Procedure, shortened: (§1)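 Cathepsin B (0.25 nM, human liver) with 100 μM Z-Phe-Arg-AMC; L (1 nM, human liver) with 2 μM Z-Phe-Arg-AMC; S (0.5 nM, recombinant) with 20 μM Z-Val-Val-Arg-AMC. pH 6.0 MES buffer, 2.5 mM L-cysteine, room temperature. Kinetic fluorescence (ex 390/em 460 nm); apparent Ki from IC50 by Cheng-Prusoff.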

[2] = target: T2, calpain-I isolated from human erythrocytes (Homo sapiens, UniProt P07384); assay: Calpain I kinetic fluorescence enzyme inhibition assay; conditions: apparent Ki from IC50 by Cheng-Prussoff; average of 2 to 4 dose-effect plots
T2 construct: calpain-I—isolated from human erythrocytes; purchased Calbiochem 208713; host or cells: human erythrocytes (tissue isolate)
T2 sequence (P07384 1-714): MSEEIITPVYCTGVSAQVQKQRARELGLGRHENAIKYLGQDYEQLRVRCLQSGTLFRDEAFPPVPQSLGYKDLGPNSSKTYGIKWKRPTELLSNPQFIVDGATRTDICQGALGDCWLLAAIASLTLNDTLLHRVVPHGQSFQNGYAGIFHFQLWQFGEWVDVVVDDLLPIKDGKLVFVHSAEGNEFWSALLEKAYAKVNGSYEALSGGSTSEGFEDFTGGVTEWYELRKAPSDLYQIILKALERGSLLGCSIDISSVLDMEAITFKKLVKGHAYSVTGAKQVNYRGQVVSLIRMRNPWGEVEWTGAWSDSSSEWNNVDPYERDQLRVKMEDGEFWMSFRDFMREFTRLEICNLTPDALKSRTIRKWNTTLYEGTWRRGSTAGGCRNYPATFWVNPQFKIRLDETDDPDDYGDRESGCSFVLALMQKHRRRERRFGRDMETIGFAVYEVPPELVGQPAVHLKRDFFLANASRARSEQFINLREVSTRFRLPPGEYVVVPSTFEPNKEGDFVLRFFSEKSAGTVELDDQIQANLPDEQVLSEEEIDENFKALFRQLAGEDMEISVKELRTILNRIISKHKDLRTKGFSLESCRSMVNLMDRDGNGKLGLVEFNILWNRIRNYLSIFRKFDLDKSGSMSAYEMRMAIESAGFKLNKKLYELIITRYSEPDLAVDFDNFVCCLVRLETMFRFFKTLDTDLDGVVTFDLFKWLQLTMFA
T2 sequence (P04632 1-268 partner): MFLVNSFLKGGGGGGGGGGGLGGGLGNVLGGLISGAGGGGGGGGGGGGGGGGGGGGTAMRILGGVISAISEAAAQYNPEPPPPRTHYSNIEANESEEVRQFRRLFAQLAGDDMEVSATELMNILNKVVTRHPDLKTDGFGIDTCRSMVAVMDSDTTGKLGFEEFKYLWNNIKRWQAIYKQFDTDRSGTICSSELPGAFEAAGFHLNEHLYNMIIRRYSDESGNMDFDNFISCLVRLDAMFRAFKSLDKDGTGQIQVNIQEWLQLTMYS

[3] = target: T3, cathepsin B isolated from human liver (Homo sapiens, UniProt P07858); assay: Cathepsin B kinetic fluorescence enzyme inhibition assay; conditions: selectivity ratio versus calpain I
T3 construct: cathepsin B—isolated from human liver; purchased Calbiochem 219362; host or cells: human liver (tissue isolate)
Procedure, shortened: as §1

[4] = target: T4, recombinant human cathepsin S (Homo sapiens, UniProt P25774); assay: Cathepsin S kinetic fluorescence enzyme inhibition assay; conditions: selectivity ratio versus calpain I
T4 construct: purchased Calbiochem 219343; host or cells: E. coli
T4 sequence (P25774 115-331): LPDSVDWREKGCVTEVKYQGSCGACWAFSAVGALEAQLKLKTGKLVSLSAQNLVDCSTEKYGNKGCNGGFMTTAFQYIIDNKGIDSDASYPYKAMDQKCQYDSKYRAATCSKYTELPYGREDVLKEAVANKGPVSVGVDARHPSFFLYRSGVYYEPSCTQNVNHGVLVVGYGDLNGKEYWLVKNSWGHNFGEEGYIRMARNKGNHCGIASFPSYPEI
Procedure, shortened: as §1

[5] = target: T5, cathepsin K activated from recombinant human procathepsin K (Homo sapiens, UniProt P43235); assay: Cathepsin K kinetic fluorescence enzyme inhibition assay; conditions: selectivity ratio versus calpain I
T5 construct: purchased Calbiochem 342001; host or cells: E. coli
T5 sequence (P43235 115-329): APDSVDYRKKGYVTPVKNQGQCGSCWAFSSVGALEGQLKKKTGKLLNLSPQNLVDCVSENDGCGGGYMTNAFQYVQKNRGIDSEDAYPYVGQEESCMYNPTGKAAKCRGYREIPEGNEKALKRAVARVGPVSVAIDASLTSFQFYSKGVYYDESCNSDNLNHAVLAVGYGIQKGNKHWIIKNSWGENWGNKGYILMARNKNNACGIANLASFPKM

## NC(=O)C(=O)C(Cc1ccccc1)NC(=O)c1cccnc1-n1ccc(-c2ccc(Cl)cc2Cl)n1 (stereo not drawn) [Example 79, N-(3-Amino-1-benzyl-2,3-dioxopropyl)-2-[3-(2,4-dichlorophenyl)-1H-pyrazol-1-yl]nicotinamide]
[1]
  Sel cat. L (Ki(cathepsin L)/Ki(calpain) ratio): ++ (Ki(cathepsin L)/Ki(calpain) ratio of ≧50)
[2]
  Ki: 0.04 to 0.1 µM
[3]
  Sel cat. B (Ki(cathepsin B)/Ki(calpain) ratio): ++ (Ki(cathepsin B)/Ki(calpain) ratio of ≧30)
[4]
  Sel cat. S (Ki(cathepsin S)/Ki(calpain) ratio): ++ (Ki(cathepsin S)/Ki(calpain) ratio of ≧100)
[5]
  Sel cat. K (Ki(cathepsin K)/Ki(calpain) ratio): ++ (Ki(cathepsin K)/Ki(calpain) ratio of ≧30)

## COc1ccc(CC(NC(=O)c2cccnc2-n2ccc(-c3ccccc3)n2)C(=O)C(N)=O)cc1 (stereo not drawn) [Example 80, N-[3-Amino-1-(4-methoxybenzyl)-2,3-dioxopropyl]-2-(3-phenyl-1H-pyrazol-1-yl)nicotinamide]
[1]
  Sel cat. L (Ki(cathepsin L)/Ki(calpain) ratio): ++ (Ki(cathepsin L)/Ki(calpain) ratio of ≧50)
[2]
  Ki: 0.04 to 0.1 µM
[3]
  Sel cat. B (Ki(cathepsin B)/Ki(calpain) ratio): ++ (Ki(cathepsin B)/Ki(calpain) ratio of ≧30)
[4]
  Sel cat. S (Ki(cathepsin S)/Ki(calpain) ratio): ++ (Ki(cathepsin S)/Ki(calpain) ratio of ≧100)
[5]
  Sel cat. K (Ki(cathepsin K)/Ki(calpain) ratio): + (10≦Ki(cathepsin K)/Ki(calpain)<30)

## COc1ccc(CC(NC(=O)c2cccnc2-n2ccc(-c3ccc(F)cc3)n2)C(=O)C(N)=O)cc1 (stereo not drawn) [Example 81, N-[3-Amino-1-(4-methoxybenzyl)-2,3-dioxopropyl]-2-[3-(4-fluorophenyl)-1H-pyrazol-1-yl]nicotinamide]
[1]
  Sel cat. L (Ki(cathepsin L)/Ki(calpain) ratio): ++ (Ki(cathepsin L)/Ki(calpain) ratio of ≧50)
[2]
  Ki: ≤ 0.04 µM
[3]
  Sel cat. B (Ki(cathepsin B)/Ki(calpain) ratio): + (10≦Ki(cathepsin B)/Ki(calpain)<30)
[4]
  Sel cat. S (Ki(cathepsin S)/Ki(calpain) ratio): ++ (Ki(cathepsin S)/Ki(calpain) ratio of ≧100)
[5]
  Sel cat. K (Ki(cathepsin K)/Ki(calpain) ratio): + (10≦Ki(cathepsin K)/Ki(calpain)<30)

## NC(=O)C(=O)C(Cc1ccccc1)NC(=O)c1cccnc1-n1ccc(-c2cccc(C(F)(F)F)c2)n1 (stereo not drawn) [Example 83, N-(3-Amino-1-benzyl-2,3-dioxopropyl)-2-{3-[3-(trifluoromethyl)phenyl]-1H-pyrazol-1-yl}nicotinamide]
[1]
  Sel cat. L (Ki(cathepsin L)/Ki(calpain) ratio): ++ (Ki(cathepsin L)/Ki(calpain) ratio of ≧50)
[2]
  Ki: ≤ 0.04 µM
[3]
  Sel cat. B (Ki(cathepsin B)/Ki(calpain) ratio): + (10≦Ki(cathepsin B)/Ki(calpain)<30)
[4]
  Sel cat. S (Ki(cathepsin S)/Ki(calpain) ratio): ++ (Ki(cathepsin S)/Ki(calpain) ratio of ≧100)
[5]
  Sel cat. K (Ki(cathepsin K)/Ki(calpain) ratio): ++ (Ki(cathepsin K)/Ki(calpain) ratio of ≧30)

## NC(=O)C(=O)C(Cc1ccccc1)NC(=O)c1cccnc1-n1ccc(-c2c(F)cccc2F)n1 (stereo not drawn) [Example 85, N-[3-Amino-2,3-dioxo-1-(phenylmethyl)propyl]-2-[3-(2,6-difluorophenyl)-1H-pyrazol-1-yl]pyridine-3-carboxamide]
[1]
  Sel cat. L (Ki(cathepsin L)/Ki(calpain) ratio): ++ (Ki(cathepsin L)/Ki(calpain) ratio of ≧50)
[2]
  Ki: ≤ 0.04 µM
[3]
  Sel cat. B (Ki(cathepsin B)/Ki(calpain) ratio): + (10≦Ki(cathepsin B)/Ki(calpain)<30)
[4]
  Sel cat. S (Ki(cathepsin S)/Ki(calpain) ratio): ++ (Ki(cathepsin S)/Ki(calpain) ratio of ≧100)
[5]
  Sel cat. K (Ki(cathepsin K)/Ki(calpain) ratio): ++ (Ki(cathepsin K)/Ki(calpain) ratio of ≧30)

## CC(C)c1ccc(-c2ccn(-c3ncccc3C(=O)NC(Cc3ccccc3)C(=O)C(N)=O)n2)cc1 (stereo not drawn) [Example 87, N-[3-Amino-2,3-dioxo-1-(phenylmethyl)propyl]-2-{3-[4-(1-methylethyl)phenyl]-1H-pyrazol-1-yl}pyridine-3-carboxamide]
[1]
  Sel cat. L (Ki(cathepsin L)/Ki(calpain) ratio): ++ (Ki(cathepsin L)/Ki(calpain) ratio of ≧50)
[2]
  Ki: ≤ 0.04 µM
[3]
  Sel cat. B (Ki(cathepsin B)/Ki(calpain) ratio): ++ (Ki(cathepsin B)/Ki(calpain) ratio of ≧30)
[4]
  Sel cat. S (Ki(cathepsin S)/Ki(calpain) ratio): ++ (Ki(cathepsin S)/Ki(calpain) ratio of ≧100)
[5]
  Sel cat. K (Ki(cathepsin K)/Ki(calpain) ratio): ++ (Ki(cathepsin K)/Ki(calpain) ratio of ≧30)

## Cl.NC(=O)C(=O)C(Cc1cccnc1)NC(=O)c1cccnc1-n1ccc(-c2ccccc2)n1 (stereo not drawn) [Example 88, N-[3-Amino-2,3-dioxo-1-(pyridin-3-ylmethyl)propyl]-2-(3-phenyl-1H-pyrazol-1-yl)pyridine-3-carboxamide hydrochloride]
[1]
  Sel cat. L (Ki(cathepsin L)/Ki(calpain) ratio): ++ (Ki(cathepsin L)/Ki(calpain) ratio of ≧50)
[2]
  Ki: 0.04 to 0.1 µM
[3]
  Sel cat. B (Ki(cathepsin B)/Ki(calpain) ratio): + (10≦Ki(cathepsin B)/Ki(calpain)<30)
[4]
  Sel cat. S (Ki(cathepsin S)/Ki(calpain) ratio): ++ (Ki(cathepsin S)/Ki(calpain) ratio of ≧100)
[5]
  Sel cat. K (Ki(cathepsin K)/Ki(calpain) ratio): ++ (Ki(cathepsin K)/Ki(calpain) ratio of ≧30)

## COc1ccccc1-c1ccn(-c2ncccc2C(=O)NC(Cc2ccccc2)C(=O)C(N)=O)n1 (stereo not drawn) [Example 90, N-[3-Amino-2,3-dioxo-1-(phenylmethyl)propyl]-2-{3-[2-(methyloxy)phenyl]-1H-pyrazol-1-yl}pyridine-3-carboxamide]
[1]
  Sel cat. L (Ki(cathepsin L)/Ki(calpain) ratio): ++ (Ki(cathepsin L)/Ki(calpain) ratio of ≧50)
[2]
  Ki: ≤ 0.04 µM
[3]
  Sel cat. B (Ki(cathepsin B)/Ki(calpain) ratio): ++ (Ki(cathepsin B)/Ki(calpain) ratio of ≧30)
[4]
  Sel cat. S (Ki(cathepsin S)/Ki(calpain) ratio): ++ (Ki(cathepsin S)/Ki(calpain) ratio of ≧100)
[5]
  Sel cat. K (Ki(cathepsin K)/Ki(calpain) ratio): + (10≦Ki(cathepsin K)/Ki(calpain)<30)

## NC(=O)C(=O)C(Cc1ccccc1)NC(=O)c1cccnc1-n1ccc(-c2cc(F)cc(F)c2)n1 (stereo not drawn) [Example 91, N-[3-Amino-2,3-dioxo-1-(phenylmethyl)propyl]-2-[3-(3,5-difluorophenyl)-1H-pyrazol-1-yl]pyridine-3-carboxamide]
[1]
  Sel cat. L (Ki(cathepsin L)/Ki(calpain) ratio): ++ (Ki(cathepsin L)/Ki(calpain) ratio of ≧50)
[2]
  Ki: ≤ 0.04 µM
[3]
  Sel cat. B (Ki(cathepsin B)/Ki(calpain) ratio): ++ (Ki(cathepsin B)/Ki(calpain) ratio of ≧30)
[4]
  Sel cat. S (Ki(cathepsin S)/Ki(calpain) ratio): ++ (Ki(cathepsin S)/Ki(calpain) ratio of ≧100)
[5]
  Sel cat. K (Ki(cathepsin K)/Ki(calpain) ratio): + (10≦Ki(cathepsin K)/Ki(calpain)<30)

## COc1ccc(CC(NC(=O)c2cccnc2-n2ccc(-c3ccccc3F)n2)C(=O)C(N)=O)cc1 (stereo not drawn) [Example 92, N-(3-Amino-1-{[4-(methyloxy)phenyl]methyl}-2,3-dioxopropyl)-2-[3-(2-fluorophenyl)-1H-pyrazol-1-yl]pyridine-3-carboxamide]
[1]
  Sel cat. L (Ki(cathepsin L)/Ki(calpain) ratio): ++ (Ki(cathepsin L)/Ki(calpain) ratio of ≧50)
[2]
  Ki: 0.04 to 0.1 µM
[3]
  Sel cat. B (Ki(cathepsin B)/Ki(calpain) ratio): ++ (Ki(cathepsin B)/Ki(calpain) ratio of ≧30)
[4]
  Sel cat. S (Ki(cathepsin S)/Ki(calpain) ratio): ++ (Ki(cathepsin S)/Ki(calpain) ratio of ≧100)
[5]
  Sel cat. K (Ki(cathepsin K)/Ki(calpain) ratio): + (10≦Ki(cathepsin K)/Ki(calpain)<30)

## Cc1ccccc1-c1ccn(-c2ncccc2C(=O)NC(Cc2ccccc2)C(=O)C(N)=O)n1 (stereo not drawn) [Example 93, N-[3-Amino-2,3-dioxo-1-(phenylmethyl)propyl]-2-[3-(2-methylphenyl)-1H-pyrazol-1-yl]pyridine-3-carboxamide]
[1]
  Sel cat. L (Ki(cathepsin L)/Ki(calpain) ratio): ++ (Ki(cathepsin L)/Ki(calpain) ratio of ≧50)
[2]
  Ki: ≤ 0.04 µM
[3]
  Sel cat. B (Ki(cathepsin B)/Ki(calpain) ratio): ++ (Ki(cathepsin B)/Ki(calpain) ratio of ≧30)
[4]
  Sel cat. S (Ki(cathepsin S)/Ki(calpain) ratio): ++ (Ki(cathepsin S)/Ki(calpain) ratio of ≧100)
[5]
  Sel cat. K (Ki(cathepsin K)/Ki(calpain) ratio): + (10≦Ki(cathepsin K)/Ki(calpain)<30)

## NC(=O)C(=O)C(Cc1ccccc1)NC(=O)c1cccnc1-n1ccc(-c2ccc(F)cc2F)n1 (stereo not drawn) [Example 94, N-[3-Amino-2,3-dioxo-1-(phenylmethyl)propyl]-2-[3-(2,4-difluorophenyl)-1H-pyrazol-1-yl]pyridine-3-carboxamide]
[1]
  Sel cat. L (Ki(cathepsin L)/Ki(calpain) ratio): ++ (Ki(cathepsin L)/Ki(calpain) ratio of ≧50)
[2]
  Ki: 0.04 to 0.1 µM
[3]
  Sel cat. B (Ki(cathepsin B)/Ki(calpain) ratio): ++ (Ki(cathepsin B)/Ki(calpain) ratio of ≧30)
[4]
  Sel cat. S (Ki(cathepsin S)/Ki(calpain) ratio): ++ (Ki(cathepsin S)/Ki(calpain) ratio of ≧100)
[5]
  Sel cat. K (Ki(cathepsin K)/Ki(calpain) ratio): + (10≦Ki(cathepsin K)/Ki(calpain)<30)
